The test system of assay [1] is Aorta. In words: Vasorelaxant activity in Sprague-Dawley rat endothelium thoracic aortic ring assessed as inhibition of phenylephrine-induced submaximal contraction at 180 uM measured after 5 mins. The format is functional.
Assay [2] has as its system Aorta. As to the kind of experiment: Vasorelaxant activity in Sprague-Dawley rat endothelium thoracic aortic ring assessed as inhibition of phenylephrine-induced submaximal contraction measured after 5 mins.

The term inhibition denotes the share of the control response that was lost under treatment. Usually IC50 stands for the point on the concentration scale where inhibition reaches its midpoint. Regarding `OC/C=C/c1cccc(Nc2cnc3ccccc3n2)c1`, the inhibition at 180 µM in the assay with Aorta [1] came out at 78.6%. The IC50 with Aorta [2] is 136 µM.
On to `O=C(O)/C=C/c1cccc(Nc2ccc3ccccc3n2)c1`, for which the inhibition at 180 µM in the assay on Aorta [1] was 55.9%. Besides, the IC50 with Aorta [2] stood at 161 µM.

The values above are taken from ChEMBL document CHEMBL1799914, “Design and synthesis of small molecule RhoA inhibitors: a new promising therapy for cardiovascular diseases?” (J Med Chem, 2011).
